{
  "source": "PubChem BioAssay AID720737",
  "about": "(The Scripps Research Institute Molecular Screening Center, 2013)",
  "test_system": "HEK293 Gal4-LXR tk-luc reporter, luminescence, 24 h",
  "assay": "LXR agonists, Gal4 luciferase reporter, dose response, counter-screen for ssDAF-12 agonist project, cell-based, luminescence, HEK293, S. stercoralis campaign (AID 720737)",
  "note": "Activity calls are given as the source filed them.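 The calls were made as follows: active = compounds whose fitted concentration for half of maximal LXR reporter activation EC50 is 10 µM or lower; inactive = the rest.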",
  "data": [
    {"smiles": "CC(C)(C)C1CCC(=NNC(=S)Nc2cccnc2)CC1", "note": "(stereo unspecified)", "values": [
      {"measurement": "EC50", "result": "> 67.5 µM (inactive)"}
    ]}
  ]
}
